Source: PMC12102759 (Protein Science : A Publication of the Protein Society, 2025)

Tested on: G3BP1 NFT2
Type: binding, human
Conditions: library DMS-CoV; bait G3BP1 NFT2; prey N; peptide RNAPRITFGGPSDSTG; listed as aa = residue placed at this position; column sums to 1

Row | Sequence | DMS PSSM value, A (position 3) | DMS PSSM value, T (position 15) | DMS PSSM value, G (position 16) | DMS PSSM value, S (position 14) | DMS PSSM value, P (position 11) | DMS PSSM value, P (position 4) | DMS PSSM value, I (position 6) | DMS PSSM value, G (position 9) | DMS PSSM value, R (position 5) | DMS PSSM value, D (position 13)
1 | RNAPRITFGGPSDSTG A3Y (RNYPRITFGGPSDSTG) | 0 |  |  |  |  |  |  |  |  | 
2 | RNAPRITFGGPSDSTG T15S (RNAPRITFGGPSDSSG) |  | 0 |  |  |  |  |  |  |  | 
3 | RNAPRITFGGPSDSTG G16N (RNAPRITFGGPSDSTN) |  |  | 1 |  |  |  |  |  |  | 
4 | RNAPRITFGGPSDSTG S14R (RNAPRITFGGPSDRTG) |  |  |  | 0 |  |  |  |  |  | 
5 | RNAPRITFGGPSDSTG P11K (RNAPRITFGGKSDSTG) |  |  |  |  | 0 |  |  |  |  | 
6 | RNAPRITFGGPSDSTG P4H (RNAHRITFGGPSDSTG) |  |  |  |  |  | 0 |  |  |  | 
7 | RNAPRITFGGPSDSTG P4M (RNAMRITFGGPSDSTG) |  |  |  |  |  | 0 |  |  |  | 
8 | RNAPRITFGGPSDSTG I6N (RNAPRNTFGGPSDSTG) |  |  |  |  |  |  | 0 |  |  | 
9 | RNAPRITFGGPSDSTG G9L (RNAPRITFLGPSDSTG) |  |  |  |  |  |  |  | 0 |  | 
10 | RNAPRITFGGPSDSTG P4L (RNALRITFGGPSDSTG) |  |  |  |  |  | 0 |  |  |  | 
11 | RNAPRITFGGPSDSTG R5M (RNAPMITFGGPSDSTG) |  |  |  |  |  |  |  |  | 0.2004 | 
12 | RNAPRITFGGPSDSTG D13F (RNAPRITFGGPSFSTG) |  |  |  |  |  |  |  |  |  | 0
13 | RNAPRITFGGPSDSTG T15G (RNAPRITFGGPSDSGG) |  | 0 |  |  |  |  |  |  |  | 
14 | RNAPRITFGGPSDSTG A3I (RNIPRITFGGPSDSTG) | 0 |  |  |  |  |  |  |  |  | 
15 | RNAPRITFGGPSDSTG T15A (RNAPRITFGGPSDSAG) |  | 0 |  |  |  |  |  |  |  | 
16 | RNAPRITFGGPSDSTG D13I (RNAPRITFGGPSISTG) |  |  |  |  |  |  |  |  |  | 0
17 | RNAPRITFGGPSDSTG P11F (RNAPRITFGGFSDSTG) |  |  |  |  | 0 |  |  |  |  | 
18 | RNAPRITFGGPSDSTG A3E (RNEPRITFGGPSDSTG) | 0.2371 |  |  |  |  |  |  |  |  | 
19 | RNAPRITFGGPSDSTG I6L (RNAPRLTFGGPSDSTG) |  |  |  |  |  |  | 0.232 |  |  | 
20 | RNAPRITFGGPSDSTG R5G (RNAPGITFGGPSDSTG) |  |  |  |  |  |  |  |  | 0 | 

Row | Sequence | DMS PSSM value, A (position 3) | DMS PSSM value, T (position 15) | DMS PSSM value, G (position 16) | DMS PSSM value, S (position 14) | DMS PSSM value, P (position 11) | DMS PSSM value, P (position 4) | DMS PSSM value, I (position 6) | DMS PSSM value, G (position 9) | DMS PSSM value, R (position 5) | DMS PSSM value, D (position 13)
21 | RNAPRITFGGPSDSTG I6A (RNAPRATFGGPSDSTG) |  |  |  |  |  |  | 0 |  |  | 
22 | RNAPRITFGGPSDSTG G16D (RNAPRITFGGPSDSTD) |  |  | 0 |  |  |  |  |  |  | 
23 | RNAPRITFGGPSDSTG A3V (RNVPRITFGGPSDSTG) | 0 |  |  |  |  |  |  |  |  | 
24 | RNAPRITFGGPSDSTG S14G (RNAPRITFGGPSDGTG) |  |  |  | 0 |  |  |  |  |  | 
25 | RNAPRITFGGPSDSTG G9N (RNAPRITFNGPSDSTG) |  |  |  |  |  |  |  | 0 |  | 
26 | RNAPRITFGGPSDSTG G16T (RNAPRITFGGPSDSTT) |  |  | 0 |  |  |  |  |  |  | 
27 | RNAPRITFGGPSDSTG S14P (RNAPRITFGGPSDPTG) |  |  |  | 0 |  |  |  |  |  | 
28 | RNAPRITFGGPSDSTG T15Y (RNAPRITFGGPSDSYG) |  | 0 |  |  |  |  |  |  |  | 
29 | RNAPRITFGGPSDSTG G9K (RNAPRITFKGPSDSTG) |  |  |  |  |  |  |  | 0 |  | 
30 | RNAPRITFGGPSDSTG G16A (RNAPRITFGGPSDSTA) |  |  | 0 |  |  |  |  |  |  | 
31 | RNAPRITFGGPSDSTG R5H (RNAPHITFGGPSDSTG) |  |  |  |  |  |  |  |  | 0.001007 | 
32 | RNAPRITFGGPSDSTG T15W (RNAPRITFGGPSDSWG) |  | 0 |  |  |  |  |  |  |  | 
33 | RNAPRITFGGPSDSTG D13R (RNAPRITFGGPSRSTG) |  |  |  |  |  |  |  |  |  | 0
34 | RNAPRITFGGPSDSTG I6S (RNAPRSTFGGPSDSTG) |  |  |  |  |  |  | 0 |  |  | 
35 | RNAPRITFGGPSDSTG P11G (RNAPRITFGGGSDSTG) |  |  |  |  | 0 |  |  |  |  | 
36 | RNAPRITFGGPSDSTG D13E (RNAPRITFGGPSESTG) |  |  |  |  |  |  |  |  |  | 0
37 | RNAPRITFGGPSDSTG D13N (RNAPRITFGGPSNSTG) |  |  |  |  |  |  |  |  |  | 0
38 | RNAPRITFGGPSDSTG D13S (RNAPRITFGGPSSSTG) |  |  |  |  |  |  |  |  |  | 0
39 | RNAPRITFGGPSDSTG D13W (RNAPRITFGGPSWSTG) |  |  |  |  |  |  |  |  |  | 0
40 | RNAPRITFGGPSDSTG G16Y (RNAPRITFGGPSDSTY) |  |  | 0 |  |  |  |  |  |  | 

Same assay, conditions: library DMS-CoV; bait G3BP1 NFT2; prey N; peptide RNAPRITFGGPSDSTG; listed as aa = residue placed at this position; column sums to 1

Row | Sequence | DMS PSSM value, G (position 10) | DMS PSSM value, F (position 8) | DMS PSSM value, N (position 2) | DMS PSSM value, S (position 12)
41 | RNAPRITFGGPSDSTG G10A (RNAPRITFGAPSDSTG) | 1 |  |  | 
42 | RNAPRITFGGPSDSTG F8V (RNAPRITVGGPSDSTG) |  | 0 |  | 
43 | RNAPRITFGGPSDSTG N2T (RTAPRITFGGPSDSTG) |  |  | 0 | 
44 | RNAPRITFGGPSDSTG N2I (RIAPRITFGGPSDSTG) |  |  | 0 | 
45 | RNAPRITFGGPSDSTG N2P (RPAPRITFGGPSDSTG) |  |  | 0 | 
46 | RNAPRITFGGPSDSTG S12K (RNAPRITFGGPKDSTG) |  |  |  | 0
47 | RNAPRITFGGPSDSTG N2Y (RYAPRITFGGPSDSTG) |  |  | 0 | 
48 | RNAPRITFGGPSDSTG G10I (RNAPRITFGIPSDSTG) | 0 |  |  | 
49 | RNAPRITFGGPSDSTG N2H (RHAPRITFGGPSDSTG) |  |  | 0 | 
50 | RNAPRITFGGPSDSTG S12H (RNAPRITFGGPHDSTG) |  |  |  | 0
51 | RNAPRITFGGPSDSTG S12T (RNAPRITFGGPTDSTG) |  |  |  | 0
52 | RNAPRITFGGPSDSTG N2D (RDAPRITFGGPSDSTG) |  |  | 0.4666 | 
